Data: ChEMBL document CHEMBL5252609, “Design, synthesis, and antitumor evaluation of morpholine substituted bisnaphthalimides as DNA targeting agents” (Bioorg Med Chem Lett, 2023)
Activity calls are given as the source filed them. The calls are words filed in the database; no cut-off is given here.

Experiments:
CNE-2 [1] = experiment: Induction of apoptosis in human CNE-2 cells assessed as early apoptotic cells at 1 uM measured after 24 hrs by annexin-V-FITC and PI staining based flow cytometry analysis (reference value: 0.439%); assay type: functional
CNE-2 [2] = experiment: Downregulation of cyclin E level in human CNE-2 cells measured after 48 hrs by Western blot analysis; assay type: functional, cell-based; settings: dose <= 2.0 µM
CNE-2 [3] = experiment: Induction of cell cycle arrest in human CNE-2 cells assessed as accumulation of cells at S phase at 0.5 uM measured after 48 hrs by flow cytometry analysis (Rvb= 19.83%); assay type: functional
CNE-2 [4] = experiment: Downregulation of CDK2 level in human CNE-2 cells measured after 48 hrs by Western blot analysis; assay type: functional, cell-based; settings: dose <= 2.0 µM
MGC-803 [5] = experiment: Antitumor activity against human MGC-803 cells xenografted in nude mouse assessed as reduction in tumor volume growth rate at 8 mg/kg, ip administrated every other day for 21 days relative to control; assay type: functional; set-up: scale not given: the % may be the effect or the level left; settings: time 21 day
CNE-2 [6] = experiment: Induction of cell cycle arrest in human CNE-2 cells assessed as accumulation of cells at G2 phase at 1 uM measured after 48 hrs by flow cytometry analysis (Rvb= 6.99%); assay type: functional
CNE-2 [7] = experiment: Induction of apoptosis in human CNE-2 cells assessed as late apoptotic cells at 2 uM measured after 24 hrs by annexin-V-FITC and PI staining based flow cytometry analysis (reference value: 3.79%); assay type: functional
CNE-2 [8] = experiment: Induction of cell cycle arrest in human CNE-2 cells assessed as accumulation of cells at S phase at 1 uM measured after 48 hrs by flow cytometry analysis (Rvb= 19.83%); assay type: functional
Homo sapiens [9] = species: Homo sapiens; experiment: Binding affinity to pBR322 DNA (unknown origin) assessed as DNA intercalation at 20 to 100 uM by electrophoresis assay; settings: dose 20-100 µM
CNE-2 [10] = experiment: Induction of apoptosis in human CNE-2 cells assessed as necrotic cells at 1 uM measured after 24 hrs by annexin-V-FITC and PI staining based flow cytometry analysis (reference value: 0.959%); assay type: functional
MGC-803 [11] = experiment: Antitumor activity against human MGC-803 cells xenografted in nude mouse assessed as reduction in tumor volume growth rate at 4 mg/kg, ip administrated every other day for 21 days relative to control; assay type: functional; set-up: scale not given: the % may be the effect or the level left; settings: time 21 day
T-24 = experiment: Antiproliferative activity against human T24 cells assessed as cell growth inhibition by MTT assay; assay type: functional, cell-based
CNE-2 [12] = experiment: Induction of apoptosis in human CNE-2 cells assessed as viable cells at 1 uM measured after 24 hrs by annexin-V-FITC and PI staining based flow cytometry analysis (reference value: 94.8%); assay type: functional; settings: read-out: Activity
CNE-2 [13] = experiment: Induction of apoptosis in human CNE-2 cells assessed as late apoptotic cells at 0.5 uM measured after 24 hrs by annexin-V-FITC and PI staining based flow cytometry analysis (reference value: 3.79%); assay type: functional
MGC-803 [14] = experiment: Antiproliferative activity against human MGC-803 cells assessed as cell growth inhibition by MTT assay; assay type: functional, cell-based
MGC-803 [15] = experiment: Toxicity in nude mouse xenografted with human MGC-803 cells assessed as morphological changes in liver at 8 mg/kg, ip administrated every other day for 21 days; assay type: functional, organism-based; settings: time 21.0 day
CNE-2 [16] = experiment: Upregulation of p27 level in human CNE-2 cells measured after 48 hrs by Western blot analysis; assay type: functional, cell-based; settings: dose <= 2.0 µM
A2780 = experiment: Antiproliferative activity against human A2780 cells assessed as cell growth inhibition by MTT assay; assay type: functional, cell-based
CNE-2 [17] = experiment: Induction of apoptosis in human CNE-2 cells assessed as late apoptotic cells at 1 uM measured after 24 hrs by annexin-V-FITC and PI staining based flow cytometry analysis (reference value: 3.79%); assay type: functional
CNE-2 [18] = experiment: Induction of apoptosis in human CNE-2 cells assessed as necrotic cells at 0.5 uM measured after 24 hrs by annexin-V-FITC and PI staining based flow cytometry analysis (reference value: 0.959%); assay type: functional
CNE-2 [19] = experiment: Induction of apoptosis in human CNE-2 cells assessed as viable cells at 0.5 uM measured after 24 hrs by annexin-V-FITC and PI staining based flow cytometry analysis (reference value: 94.8%); assay type: functional; settings: read-out: Activity
[20] = biological target: T1, DNA topoisomerase 1 (Homo sapiens) (UniProt P11387); experiment: Inhibition of human DNA topoisomerase 1 assessed as reduction in pBR322 DNA relaxation at 10 to 20 uM by gel electrophoresis method; settings: dose 10-20 µM
T1 sequence (whole entry): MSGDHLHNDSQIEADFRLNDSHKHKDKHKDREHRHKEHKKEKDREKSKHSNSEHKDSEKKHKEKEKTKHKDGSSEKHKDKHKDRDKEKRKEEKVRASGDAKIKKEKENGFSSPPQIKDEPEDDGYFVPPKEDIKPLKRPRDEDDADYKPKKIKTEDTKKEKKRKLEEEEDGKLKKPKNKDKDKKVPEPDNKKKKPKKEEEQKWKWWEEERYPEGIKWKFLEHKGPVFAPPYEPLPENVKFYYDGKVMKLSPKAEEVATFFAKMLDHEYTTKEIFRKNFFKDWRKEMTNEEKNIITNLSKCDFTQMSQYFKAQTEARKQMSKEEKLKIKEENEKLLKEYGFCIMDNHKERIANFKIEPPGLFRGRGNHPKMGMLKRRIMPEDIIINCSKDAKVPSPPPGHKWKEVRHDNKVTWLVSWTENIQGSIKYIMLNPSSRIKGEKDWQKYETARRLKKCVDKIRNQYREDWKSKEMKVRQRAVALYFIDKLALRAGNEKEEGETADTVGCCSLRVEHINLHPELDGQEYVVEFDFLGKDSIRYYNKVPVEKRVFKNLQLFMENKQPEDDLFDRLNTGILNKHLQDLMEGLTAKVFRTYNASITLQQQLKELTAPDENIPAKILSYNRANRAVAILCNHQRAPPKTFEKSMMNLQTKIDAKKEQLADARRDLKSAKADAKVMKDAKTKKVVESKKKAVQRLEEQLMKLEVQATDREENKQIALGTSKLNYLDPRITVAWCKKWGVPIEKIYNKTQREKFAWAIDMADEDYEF

CNE-2 [21] = experiment: Induction of apoptosis in human CNE-2 cells assessed as viable cells at 2 uM measured after 24 hrs by annexin-V-FITC and PI staining based flow cytometry analysis (reference value: 94.8%); assay type: functional; settings: read-out: Activity
CNE-2 [22] = experiment: Antiproliferative activity against human CNE-2 cells assessed as cell growth inhibition by MTT assay; assay type: functional, cell-based
CNE-2 [23] = experiment: Induction of apoptosis in human CNE-2 cells assessed as necrotic cells at 2 uM measured after 24 hrs by annexin-V-FITC and PI staining based flow cytometry analysis (reference value: 0.959%); assay type: functional
CNE-2 [24] = experiment: Induction of cell cycle arrest in human CNE-2 cells assessed as accumulation of cells at G1 phase at 2 uM measured after 48 hrs by flow cytometry analysis (Rvb= 73.18%); assay type: functional
Homo sapiens [25] = species: Homo sapiens; experiment: Binding affinity to pBR322 DNA (unknown origin) assessed as induced retardation of DNA migration at 20 to 100 uM by gel electrophoresis assay; settings: dose 20-100 µM
CNE-2 [26] = experiment: Induction of cell cycle arrest in human CNE-2 cells assessed as accumulation of cells at G1 phase at 1 uM measured after 48 hrs by flow cytometry analysis (Rvb= 73.18%); assay type: functional
CNE-2 [27] = experiment: Induction of ROS generation in human CNE-2 cells at 0.5 to 2 uM incubated for 24 hrs by DCFH2-DA probe based analysis; assay type: functional, cell-based; settings: dose 0.5-2 µM

SMILES	Activity (CNE-2 [1])	Activity (CNE-2 [2])	Activity (CNE-2 [3])	Activity (CNE-2 [4])	Activity (MGC-803 [5])	Activity (CNE-2 [6])	Activity (CNE-2 [7])	Activity (CNE-2 [8])	Activity (Homo sapiens [9])	Activity (CNE-2 [10])	Activity (MGC-803 [11])	IC50 (T-24)	viability at 1 µM (CNE-2 [12])	Activity (CNE-2 [13])	IC50 (MGC-803 [14])	Activity (MGC-803 [15])	Activity (CNE-2 [16])	IC50 (A2780)	Activity (CNE-2 [17])	Activity (CNE-2 [18])	also measured
CN(C)CCN1C(=O)c2cccc3c(N4CCOCC4)c([N+](=O)[O-])cc(c23)C1=O	3.01%	Dose-Dependent Effect	20.05%	Dose-Dependent Effect	56.1%	12.63%	9.2%	18.12%	Active	5.56%	59.9%	1.54 µM	82.9%	8.17%	1.56 µM	Toxic	Dose-Dependent Effect	4.81 µM	8.53%	2.12%	viability at 0.5 µM (CNE-2 [19]): 84%; inhibition [20]: Active; viability at 2 µM (CNE-2 [21]): 71.9%; IC50 (CNE-2 [22]): 1.48 µM; Activity (CNE-2 [23]): 1.91%; Activity (CNE-2 [24]): 38.9%; Activity (Homo sapiens [25]): Active; Activity (CNE-2 [26]): 69.25%; Activity (CNE-2 [27]): Active
O=C1c2cccc3c(N4CCOCC4)c([N+](=O)[O-])cc(c23)C(=O)N1CCNCCN1C(=O)c2cccc3c(N4CCOCC4)c([N+](=O)[O-])cc(c23)C1=O	2.19%	Dose-Dependent Effect	31.78%	Dose-Dependent Effect	46%	2.69%	13.4%	31.13%	Active	7.3%	49.7%	1.24 µM	83.4%	6.61%	0.09 µM	Toxic	Dose-Dependent Effect	0.62 µM	7.06%	7.04%	viability at 0.5 µM (CNE-2 [19]): 82.6%; inhibition [20]: Active; viability at 2 µM (CNE-2 [21]): 70.1%; IC50 (CNE-2 [22]): 0.41 µM; Activity (CNE-2 [23]): 13.9%; Activity (CNE-2 [24]): 39.09%; Activity (Homo sapiens [25]): Active; Activity (CNE-2 [26]): 66.18%; Activity (CNE-2 [27]): Active
